This passage reports IC50, % of control and % of inhibition results from ChEMBL document CHEMBL5465560, “Selectivity Literature for EUbOPEN Chemogenomic Library” (2024).

Assay [1] has as its target Ribosomal protein S6 kinase beta-1 (Homo sapiens, UniProt P23443). In words: Selectivity interaction (Enyzmatic assay) EUB0000601a RPS6KB1.
The target in assay [2] is Eukaryotic translation initiation factor 2-alpha kinase 1 (Homo sapiens) (UniProt Q9BQI3). In words: Selectivity interaction (KinomeScan (DiscoverX)) EUB0001049a EIF2AK1. The following applies: at 1 µM.
Assay [3] has as its target T1, 5-hydroxytryptamine receptor 3A (Homo sapiens) (UniProt P46098).
T1 sequence (whole entry): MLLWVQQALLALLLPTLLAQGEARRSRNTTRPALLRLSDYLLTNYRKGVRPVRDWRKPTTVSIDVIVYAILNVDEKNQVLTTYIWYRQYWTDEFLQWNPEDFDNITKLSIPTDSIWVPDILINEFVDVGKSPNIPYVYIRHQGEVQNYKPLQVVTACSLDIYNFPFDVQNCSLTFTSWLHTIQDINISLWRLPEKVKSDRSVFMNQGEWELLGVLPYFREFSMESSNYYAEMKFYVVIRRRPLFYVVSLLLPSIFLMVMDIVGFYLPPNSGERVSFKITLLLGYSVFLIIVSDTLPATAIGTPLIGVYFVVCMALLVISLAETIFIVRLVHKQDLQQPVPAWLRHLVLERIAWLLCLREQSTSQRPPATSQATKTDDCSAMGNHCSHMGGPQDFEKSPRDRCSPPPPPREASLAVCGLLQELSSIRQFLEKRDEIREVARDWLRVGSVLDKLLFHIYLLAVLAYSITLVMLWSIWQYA
In words: Selectivity interaction (Panel of non-epigenetic targets (kinases, GPCRs, ion channels, and transporters, Eurofins) ) EUB0000271b HTR3A. The settings on record: at 1 µM.

The target of assay [4] is Cyclin-dependent kinase 11B (Homo sapiens) (UniProt P21127). In words: Selectivity interaction (KinomeScan (DiscoverX)) EUB0000666a CDK11B. The settings on record: at 10 µM.
In assay [5] the target is Cyclin-dependent kinase 18 (Homo sapiens) (UniProt Q07002). In words: Selectivity interaction (KinomeScan (DiscoverX)) EUB0000666a CDK18. The following applies: at 10 µM.
The target in assay [6] is T2, cGMP-dependent protein kinase 1 (Homo sapiens) (UniProt Q13976).
T2 sequence (whole entry): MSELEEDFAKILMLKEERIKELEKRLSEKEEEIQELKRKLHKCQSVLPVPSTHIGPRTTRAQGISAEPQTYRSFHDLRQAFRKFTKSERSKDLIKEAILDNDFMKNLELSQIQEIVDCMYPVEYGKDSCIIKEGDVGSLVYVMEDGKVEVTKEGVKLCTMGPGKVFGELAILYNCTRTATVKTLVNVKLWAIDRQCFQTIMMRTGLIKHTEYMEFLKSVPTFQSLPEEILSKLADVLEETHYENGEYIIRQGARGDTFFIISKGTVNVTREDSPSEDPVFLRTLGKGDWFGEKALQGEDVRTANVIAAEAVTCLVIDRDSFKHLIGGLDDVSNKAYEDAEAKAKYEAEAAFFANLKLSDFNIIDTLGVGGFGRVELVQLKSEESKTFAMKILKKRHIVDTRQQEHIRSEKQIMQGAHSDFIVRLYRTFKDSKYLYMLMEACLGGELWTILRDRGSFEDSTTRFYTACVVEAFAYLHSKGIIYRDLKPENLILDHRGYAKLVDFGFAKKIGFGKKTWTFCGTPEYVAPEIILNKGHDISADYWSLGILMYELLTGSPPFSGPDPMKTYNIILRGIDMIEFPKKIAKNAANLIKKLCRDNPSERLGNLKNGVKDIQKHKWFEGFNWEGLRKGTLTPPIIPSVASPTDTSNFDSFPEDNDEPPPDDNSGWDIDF
In words: Selectivity interaction (SelectScreen profiling (Invitrogen)) EUB0000607a PRKG1. The following applies: at 2 µM.

The target of assay [7] is Proto-oncogene tyrosine-protein kinase Src (Homo sapiens, UniProt P12931). In words: Selectivity interaction (ActivX KiNativ screen (kinase selectivity in THP-1 cell lysates)) EUB0000639a SRC. The class given is subcellular. The following applies: lysate.
The target in assay [8] is 5'-AMP-activated protein kinase catalytic subunit alpha-1 (Homo sapiens, UniProt Q13131). In words: Selectivity interaction (ActivX KiNativ screen (kinase selectivity in THP-1 cell lysates)) EUB0000639a PRKAA1. The class given is subcellular. The settings on record: lysate, at 0.01 µM.
Assay [9] deals with T3, Phosphatidylinositol 5-phosphate 4-kinase type-2 alpha (Homo sapiens) (UniProt P48426).
T3 sequence (whole entry): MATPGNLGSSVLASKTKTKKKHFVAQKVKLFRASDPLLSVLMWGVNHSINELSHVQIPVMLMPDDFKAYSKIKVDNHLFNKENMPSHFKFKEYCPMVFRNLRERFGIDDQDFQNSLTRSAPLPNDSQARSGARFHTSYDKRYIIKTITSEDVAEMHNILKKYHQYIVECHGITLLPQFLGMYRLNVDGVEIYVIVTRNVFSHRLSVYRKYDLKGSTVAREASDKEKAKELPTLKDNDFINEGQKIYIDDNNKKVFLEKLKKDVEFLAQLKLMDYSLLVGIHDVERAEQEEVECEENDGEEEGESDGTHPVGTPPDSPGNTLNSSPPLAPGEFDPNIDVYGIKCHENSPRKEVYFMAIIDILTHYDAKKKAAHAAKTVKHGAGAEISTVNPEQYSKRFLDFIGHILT
In words: Selectivity interaction (ActivX KiNativ screen (ex vivo kinase selectivity in human PBMCs)) EUB0001619a PIP4K2A. Type of assay: cell-based. The settings on record: PBMC, at 1 µM.

The target in assay [10] is Serine/threonine-protein kinase WNK1 (Homo sapiens) (UniProt Q9H4A3). In words: Selectivity interaction (ActivX KiNativ screen (ex vivo kinase selectivity in human PBMCs)) EUB0001619a WNK1. Type of assay: cell-based. The settings on record: PBMC, at 1 µM.
In assay [11] the target is Calcium/calmodulin-dependent protein kinase kinase 2 (Homo sapiens) (UniProt Q96RR4). In words: Selectivity interaction (ActivX KiNativ screen (ex vivo kinase selectivity in human PBMCs)) EUB0001619a CAMKK2. The following applies: PBMC, at 1 µM. The class given is cell-based.
The target of assay [12] is Ribosomal protein S6 kinase alpha-5 (Homo sapiens) (UniProt O75582). In words: Selectivity interaction (Kinase panel (literature)) EUB0001199aCl RPS6KA5. The settings on record: at 1 µM.
The target is the same in assay [13]. In words: Selectivity interaction (KinomeScan (DiscoverX)) EUB0000618a RPS6KA5. The following applies: at 10 µM.

Each structure is given as a SMILES string. Where only a bound is given, the exact number is not on record here.

Sequence of Proto-oncogene tyrosine-protein kinase Src (P12931 2-536 limits assumed): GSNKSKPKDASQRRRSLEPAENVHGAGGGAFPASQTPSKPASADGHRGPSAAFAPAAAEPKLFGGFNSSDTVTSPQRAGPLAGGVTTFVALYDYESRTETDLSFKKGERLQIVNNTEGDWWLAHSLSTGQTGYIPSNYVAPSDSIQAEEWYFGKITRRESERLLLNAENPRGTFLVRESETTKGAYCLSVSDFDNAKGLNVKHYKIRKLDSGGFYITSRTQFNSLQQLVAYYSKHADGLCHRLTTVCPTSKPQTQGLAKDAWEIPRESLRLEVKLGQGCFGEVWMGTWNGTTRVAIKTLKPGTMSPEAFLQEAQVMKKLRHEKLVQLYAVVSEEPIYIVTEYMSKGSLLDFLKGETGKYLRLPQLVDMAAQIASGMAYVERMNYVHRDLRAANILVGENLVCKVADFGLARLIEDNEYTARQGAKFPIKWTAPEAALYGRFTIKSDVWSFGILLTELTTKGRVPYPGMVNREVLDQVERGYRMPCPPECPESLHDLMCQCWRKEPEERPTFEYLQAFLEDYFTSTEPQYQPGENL
Sequence of Ribosomal protein S6 kinase alpha-5 (Homo sapiens) (O75582 whole entry, looked up): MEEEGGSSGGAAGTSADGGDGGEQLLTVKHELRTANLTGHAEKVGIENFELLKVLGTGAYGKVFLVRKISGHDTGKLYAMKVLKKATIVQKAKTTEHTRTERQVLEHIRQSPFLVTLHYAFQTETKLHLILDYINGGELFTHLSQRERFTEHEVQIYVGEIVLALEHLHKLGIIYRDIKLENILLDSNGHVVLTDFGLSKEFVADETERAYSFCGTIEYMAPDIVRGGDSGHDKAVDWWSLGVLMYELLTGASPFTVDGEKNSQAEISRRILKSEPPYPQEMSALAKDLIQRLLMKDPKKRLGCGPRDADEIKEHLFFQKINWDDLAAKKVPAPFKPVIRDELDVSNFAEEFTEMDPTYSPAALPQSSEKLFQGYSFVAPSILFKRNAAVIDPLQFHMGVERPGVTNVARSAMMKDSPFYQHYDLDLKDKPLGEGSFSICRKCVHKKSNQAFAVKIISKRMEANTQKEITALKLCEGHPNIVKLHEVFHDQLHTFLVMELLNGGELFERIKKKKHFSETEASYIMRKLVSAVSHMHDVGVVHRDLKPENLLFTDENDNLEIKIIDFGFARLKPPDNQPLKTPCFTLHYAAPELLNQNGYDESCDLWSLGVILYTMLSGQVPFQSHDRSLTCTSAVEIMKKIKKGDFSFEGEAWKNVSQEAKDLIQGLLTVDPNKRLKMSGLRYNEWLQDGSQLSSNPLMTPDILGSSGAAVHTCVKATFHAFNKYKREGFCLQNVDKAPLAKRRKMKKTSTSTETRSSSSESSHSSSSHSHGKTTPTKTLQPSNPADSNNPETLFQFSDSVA
Sequence of Calcium/calmodulin-dependent protein kinase kinase 2 (Homo sapiens) (Q96RR4 2-588 limits assumed): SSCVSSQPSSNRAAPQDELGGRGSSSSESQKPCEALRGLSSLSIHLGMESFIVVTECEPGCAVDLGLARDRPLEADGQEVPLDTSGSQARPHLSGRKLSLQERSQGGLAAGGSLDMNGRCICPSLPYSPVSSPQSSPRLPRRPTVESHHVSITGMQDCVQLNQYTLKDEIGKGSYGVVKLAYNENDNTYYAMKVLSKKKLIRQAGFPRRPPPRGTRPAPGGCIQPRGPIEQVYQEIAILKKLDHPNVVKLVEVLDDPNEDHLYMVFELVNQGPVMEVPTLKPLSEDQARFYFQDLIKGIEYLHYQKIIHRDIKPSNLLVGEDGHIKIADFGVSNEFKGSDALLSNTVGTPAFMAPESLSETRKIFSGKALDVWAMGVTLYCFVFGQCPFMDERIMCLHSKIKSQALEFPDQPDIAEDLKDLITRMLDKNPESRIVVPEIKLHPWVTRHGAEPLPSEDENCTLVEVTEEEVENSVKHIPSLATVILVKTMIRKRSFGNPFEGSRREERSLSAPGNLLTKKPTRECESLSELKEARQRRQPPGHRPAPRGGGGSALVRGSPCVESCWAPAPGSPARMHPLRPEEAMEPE
Sequence of Cyclin-dependent kinase 11B (Homo sapiens) (P21127 whole entry): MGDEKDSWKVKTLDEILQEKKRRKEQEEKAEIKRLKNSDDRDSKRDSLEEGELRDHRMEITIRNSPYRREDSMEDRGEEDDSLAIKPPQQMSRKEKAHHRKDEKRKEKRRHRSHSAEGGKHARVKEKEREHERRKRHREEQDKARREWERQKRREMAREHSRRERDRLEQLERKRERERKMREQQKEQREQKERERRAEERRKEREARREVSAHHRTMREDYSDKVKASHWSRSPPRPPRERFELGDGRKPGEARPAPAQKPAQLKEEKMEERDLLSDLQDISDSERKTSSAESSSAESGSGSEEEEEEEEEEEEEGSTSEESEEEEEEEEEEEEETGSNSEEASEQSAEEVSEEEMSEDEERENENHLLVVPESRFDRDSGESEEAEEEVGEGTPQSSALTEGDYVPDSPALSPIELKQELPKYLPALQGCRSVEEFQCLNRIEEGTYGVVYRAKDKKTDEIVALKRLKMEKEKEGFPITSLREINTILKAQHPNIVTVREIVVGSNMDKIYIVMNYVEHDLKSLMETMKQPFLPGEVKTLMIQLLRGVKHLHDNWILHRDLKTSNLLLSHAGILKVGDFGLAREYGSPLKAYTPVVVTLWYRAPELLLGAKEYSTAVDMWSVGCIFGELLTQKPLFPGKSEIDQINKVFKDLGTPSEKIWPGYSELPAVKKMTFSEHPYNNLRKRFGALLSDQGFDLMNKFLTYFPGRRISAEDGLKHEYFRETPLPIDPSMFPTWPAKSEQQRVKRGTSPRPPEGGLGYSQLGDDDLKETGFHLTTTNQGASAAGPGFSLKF
Sequence of Serine/threonine-protein kinase WNK1 (Homo sapiens) (Q9H4A3 whole entry, looked up): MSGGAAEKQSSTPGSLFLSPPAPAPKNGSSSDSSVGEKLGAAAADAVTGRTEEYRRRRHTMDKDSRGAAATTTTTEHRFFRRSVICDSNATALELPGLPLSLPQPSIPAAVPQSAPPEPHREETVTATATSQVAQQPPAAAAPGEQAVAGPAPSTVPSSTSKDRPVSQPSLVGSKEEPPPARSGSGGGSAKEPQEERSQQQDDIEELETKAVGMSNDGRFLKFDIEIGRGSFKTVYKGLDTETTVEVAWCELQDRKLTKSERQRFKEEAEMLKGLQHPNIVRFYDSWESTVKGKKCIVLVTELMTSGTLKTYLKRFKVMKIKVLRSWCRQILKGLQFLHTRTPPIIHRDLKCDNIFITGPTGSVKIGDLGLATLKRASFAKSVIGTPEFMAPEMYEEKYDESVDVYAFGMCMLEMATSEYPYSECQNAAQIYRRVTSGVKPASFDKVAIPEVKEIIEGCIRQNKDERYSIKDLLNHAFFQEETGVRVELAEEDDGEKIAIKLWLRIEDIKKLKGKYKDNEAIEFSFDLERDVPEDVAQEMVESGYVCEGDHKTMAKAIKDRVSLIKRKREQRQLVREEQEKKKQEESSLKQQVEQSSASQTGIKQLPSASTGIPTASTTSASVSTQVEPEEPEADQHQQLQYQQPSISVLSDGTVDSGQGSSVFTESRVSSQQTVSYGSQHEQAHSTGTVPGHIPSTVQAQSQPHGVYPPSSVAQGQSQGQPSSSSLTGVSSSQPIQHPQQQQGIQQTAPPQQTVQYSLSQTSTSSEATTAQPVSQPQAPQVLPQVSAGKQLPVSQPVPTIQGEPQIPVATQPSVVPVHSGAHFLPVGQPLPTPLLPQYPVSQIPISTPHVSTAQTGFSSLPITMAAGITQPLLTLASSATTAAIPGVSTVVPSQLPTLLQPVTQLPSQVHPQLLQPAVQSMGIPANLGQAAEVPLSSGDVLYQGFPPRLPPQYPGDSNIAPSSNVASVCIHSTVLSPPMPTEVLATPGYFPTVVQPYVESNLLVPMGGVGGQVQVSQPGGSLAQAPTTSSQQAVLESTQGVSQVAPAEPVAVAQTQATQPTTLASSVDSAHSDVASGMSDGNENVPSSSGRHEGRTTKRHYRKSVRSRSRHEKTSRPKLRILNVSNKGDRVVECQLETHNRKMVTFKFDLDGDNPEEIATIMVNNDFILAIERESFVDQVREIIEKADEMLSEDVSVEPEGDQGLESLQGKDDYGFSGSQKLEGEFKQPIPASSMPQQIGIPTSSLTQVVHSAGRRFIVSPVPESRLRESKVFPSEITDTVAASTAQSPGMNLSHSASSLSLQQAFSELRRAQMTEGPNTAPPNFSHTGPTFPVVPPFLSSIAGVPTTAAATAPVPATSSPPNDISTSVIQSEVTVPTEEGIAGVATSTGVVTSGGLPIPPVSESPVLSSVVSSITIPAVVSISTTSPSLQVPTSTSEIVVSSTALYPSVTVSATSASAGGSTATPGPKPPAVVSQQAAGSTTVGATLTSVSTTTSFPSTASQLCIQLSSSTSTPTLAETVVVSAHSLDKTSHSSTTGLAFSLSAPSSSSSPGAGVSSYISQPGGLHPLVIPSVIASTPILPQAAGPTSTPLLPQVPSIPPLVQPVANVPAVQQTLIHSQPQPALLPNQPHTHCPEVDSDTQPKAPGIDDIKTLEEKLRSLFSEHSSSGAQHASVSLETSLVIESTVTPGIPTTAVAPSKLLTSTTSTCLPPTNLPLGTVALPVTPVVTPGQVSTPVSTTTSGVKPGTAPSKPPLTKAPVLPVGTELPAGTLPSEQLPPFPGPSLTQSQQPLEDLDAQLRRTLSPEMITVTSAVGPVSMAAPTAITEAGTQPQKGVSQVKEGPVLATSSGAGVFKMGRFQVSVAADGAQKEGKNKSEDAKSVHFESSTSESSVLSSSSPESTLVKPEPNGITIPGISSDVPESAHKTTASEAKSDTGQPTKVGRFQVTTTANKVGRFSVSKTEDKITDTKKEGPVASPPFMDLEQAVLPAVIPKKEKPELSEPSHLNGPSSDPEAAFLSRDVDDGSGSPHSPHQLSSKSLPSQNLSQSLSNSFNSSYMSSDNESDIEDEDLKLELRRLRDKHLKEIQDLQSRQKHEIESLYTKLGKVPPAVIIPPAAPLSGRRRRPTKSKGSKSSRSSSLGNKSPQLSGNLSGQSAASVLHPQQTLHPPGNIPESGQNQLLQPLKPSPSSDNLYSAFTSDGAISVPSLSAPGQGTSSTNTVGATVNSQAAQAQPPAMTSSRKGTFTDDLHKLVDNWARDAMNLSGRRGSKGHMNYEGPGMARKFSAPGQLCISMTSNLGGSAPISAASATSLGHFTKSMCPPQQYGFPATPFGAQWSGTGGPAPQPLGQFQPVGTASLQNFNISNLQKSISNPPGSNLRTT

For `CCc1cc(Nc2nccc(-c3c(-c4ccc(OC)c(C(=O)Nc5c(F)cccc5F)c4)nc4ccccn34)n2)c(OC)cc1N1CCC(N2CCN(S(C)(=O)=O)CC2)CC1`, the IC50 (commonly the concentration needed to halve the response being measured) in [1] is > 10 µM. Consider `COc1cc(Nc2nc(C)cc(-c3cnn4nc(OC)ccc34)n2)cc(C(F)(F)F)c1`, for which, in assay [2], the % of control came to 89%.

Regarding `Cc1cc(C)cc([C@@H]2c3cc(C)ccc3NC(=O)CN2C(=O)c2ccc(Br)s2)c1`, in assay [3], the % of inhibition was -5%. Turning to `O=C(NOC[C@H](O)CO)c1ccc(F)c(F)c1Nc1ccc(I)cc1F`, the % of control turned out to be 97% in assay [4] and 100% in [5]. Consider `CNC(=O)Nc1ccc(-c2nc(N3CC4CCC(C3)O4)c3cnn(C4CCC5(CC4)OCCO5)c3n2)cc1`, for which, in assay [6], the % of inhibition was determined as 1%. With `CC[C@@H]1[C@H](F)C(=O)N[C@@H]1COc1nccc2cc(C(N)=O)c(OC)cc12` [ZIMLOVISERTIB], the % of inhibition in assay [7] (at 0.01 µM) was -8.5%; in assay [7] (at 0.04 µM), -0.2%; in assay [7] (at 0.2 µM), 0.7%; in [7] (at 1 µM), -11%; in assay [7] (at 5 µM), -13.3%; in [8], 7.8%. For `N#Cc1cccc(-c2c[nH]c3ncnc(N4CCOCC4)c23)c1`, the % of inhibition in [9] is 15%; in assay [10], -6%; in assay [11], 49%. On to `CN1Cc2nccc(-c3cn(C)nc3-c3ccc(F)cc3)c2C1=O`, for which, in assay [12], the % of inhibition was 0%. Molecule `O[C@H]1CC[C@H](Nc2ncc3nc(Nc4c(F)cc(F)cc4F)n([C@H]4CCOC4)c3n2)CC1` yielded a % of control in assay [13] of 100%.
